Some test systems named below: A498 renal; CCRF-CEM leukemia; EKVX NSCLC; HCC-2998 colon; HOP-92 NSCLC; IGROV1 ovarian; K-562 leukemia; MALME-3M melanoma; NCI-H226 lung; RXF 393 renal.
Test in all cases: inhibition of tumour cell growth, NCI panel, 48 h

Structures are written as SMILES. Several values for one entry are separate records, joined by “and”; a condition that tells them apart may be missing. Equal values may be shown once.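 Tested at 5 concentrations; 48 h exposure; 96-well plates; endpoints linearly interpolated, else capped at highest concentration. Abbreviation: GI50, concentration required for 50% inhibition of growth. TGI denotes the concentration required for complete inhibition of growth.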

On to `OCC(O)CNc1ncnc2ccccc12` (stereo unspecified), for which the TGI in the test on A498 renal, with CCRF-CEM leukemia, with EKVX NSCLC, with HCC-2998 colon, with HOP-92 NSCLC and in the test with IGROV1 ovarian was > 100 µM in each case. In addition, the TGI in the test on K-562 leukemia, in the test with MALME-3M melanoma, in the test on NCI-H226 lung and with RXF 393 renal was > 100 µM throughout.

Consider `CNC1Cc2c[nH]c3cccc(c23)C12C=C(C)C(=O)O2` (stereo unspecified), for which the TGI with A498 renal, in the test with CCRF-CEM leukemia, with EKVX NSCLC, with HCC-2998 colon, with HOP-92 NSCLC and with IGROV1 ovarian was > 100 µM each time. The TGI with K-562 leukemia, with MALME-3M melanoma, in the test with NCI-H226 lung and in the test on RXF 393 renal was > 100 µM each time.

`CC[C@@]1(O)C(=O)OCc2c1cc1n(c2=O)Cc2cc3ccccc3nc2-1`: the TGI with A498 renal was found to be 0.212 µM; in the test on CCRF-CEM leukemia, 0.0159 µM; in the test with EKVX NSCLC it was 1.6 µM; in the test with HCC-2998 colon, 1.21 µM; with HOP-92 NSCLC, 0.131 µM; in the test with IGROV1 ovarian, 11.3 µM. In addition, the TGI with K-562 leukemia was 45.6 µM; in the test with MALME-3M melanoma, 2.11 µM; in the test on NCI-H226 lung, 0.177 µM; in the test on RXF 393 renal it was 0.126 µM. Besides, the GI50 is 0.0514 µM with K-562 leukemia and 0.0202 µM in the test with NCI-H226 lung.

Turning to `COc1ccccc1CC(C)N` (stereo unspecified), the TGI in the test with A498 renal, in the test on CCRF-CEM leukemia, in the test on EKVX NSCLC, in the test on HCC-2998 colon, in the test with HOP-92 NSCLC and in the test with IGROV1 ovarian was > 100 µM each time. In addition, the TGI in the test on K-562 leukemia, in the test on MALME-3M melanoma, in the test with NCI-H226 lung and with RXF 393 renal was > 100 µM throughout.

Consider `O=C(NC(Cc1ccc(Br)cc1)C(=O)O)c1ccc(I)cc1` (stereo unspecified), for which the TGI with A498 renal, with CCRF-CEM leukemia, with EKVX NSCLC, in the test on HCC-2998 colon, in the test on HOP-92 NSCLC and in the test with IGROV1 ovarian was > 100 µM in each case. Moreover, the TGI with K-562 leukemia, with MALME-3M melanoma, with NCI-H226 lung and with RXF 393 renal was > 100 µM throughout.

In the case of `CCN(CC)CC[n+]1ccc2c(C)c3[nH]c4ccc(O)cc4c3c(C)c2c1`, the GI50 was 20.5 µM with A498 renal; 0.808 µM in the test with CCRF-CEM leukemia; 2.03 µM with EKVX NSCLC; 6.94 µM in the test on HCC-2998 colon; 2.33 µM in the test with HOP-92 NSCLC; 4.79 µM in the test on IGROV1 ovarian. Further, the GI50 in the test on MALME-3M melanoma is 3.91 µM; in the test with NCI-H226 lung it was 0.631 µM; in the test with RXF 393 renal, 13.9 µM. Further, the TGI in the test with A498 renal was 74.6 µM and 84.3 µM; in the test with CCRF-CEM leukemia, 33 µM and 23.1 µM; in the test with EKVX NSCLC, 38.8 µM and 14.8 µM; with HCC-2998 colon, 22.6 µM and 85.4 µM; in the test on HOP-92 NSCLC it was 32.6 µM and 12.4 µM; with IGROV1 ovarian it was 38.6 µM and 73 µM. Besides, the TGI is 42.5 µM and 40.2 µM with K-562 leukemia; 19.3 µM and 22.3 µM in the test with MALME-3M melanoma; 6.64 µM and 3.58 µM in the test with NCI-H226 lung; 56.5 µM and 57.2 µM with RXF 393 renal.

As for `Cc1[nH]c(=O)[nH]c(=O)c1/C=C/C(=O)NC(CO)CS(=O)CS(C)=O` (stereo unspecified), the TGI in the test with A498 renal is 130 µM; in the test on CCRF-CEM leukemia it was 111 µM; with EKVX NSCLC, 66.4 µM; in the test on HCC-2998 colon it was 53.8 µM; in the test with HOP-92 NSCLC, 44 µM; in the test on IGROV1 ovarian, 103 µM. Further, the TGI was found to be 135 µM in the test on K-562 leukemia, 57.9 µM with MALME-3M melanoma, 77.3 µM with NCI-H226 lung and 125 µM in the test on RXF 393 renal.

With `CCOC(=O)CCC(C(=O)OCC)n1nc2ccc(Nc3c(C)[n+]([O-])c4cc(F)c(OCC)cc4[n+]3[O-])cc2n1` (stereo unspecified), the TGI in the test on A498 renal is > 100 µM; in the test with CCRF-CEM leukemia it was > 100 µM; in the test with EKVX NSCLC, 98.1 µM; in the test on HCC-2998 colon, > 100 µM; in the test with HOP-92 NSCLC, 87.8 µM; in the test with IGROV1 ovarian, > 100 µM. Also, the TGI with K-562 leukemia is > 100 µM; with MALME-3M melanoma, > 100 µM; with NCI-H226 lung it was > 100 µM; in the test with RXF 393 renal, 32.5 µM.

(Values after PubChem BioAssay (NCI).)
